Measurements from US9606123B2, “Compositions and methods for diagnosing and monitoring ovarian cancer progression and treatment” (University of Virginia Patent Foundation, priority 2013, dated 2017).
“Also recorded” adds a separate entry of the source.

Assays:
[1] = test system: A2780 cells; assay: Tumor burden in mice bearing platinum-sensitive cells treated with carboplatin; format: in vivo, Athymic nude mice; settings: 25 mg/kg carboplatin weekly IP
Protocol: (§1) FIG. 3. Carboplatin indirectly regulates mesothelial VCAM-1 expression by affecting tumor burden. Athymic nude mice were given an intraperitoneal (IP) injection of A2780 (n=3 per time point) or A2780Cis (n=3 per time point) cells or saline (control, n=2). One week following tumor initiation a group of mice was imaged to obtain baseline values; the remaining mice were treated with 25 mg/kg carboplatin weekly. (A) SPECT/CT images were collected weekly starting 1 week after tumor initiation (week 0); weeks 0, 1 and 2 indicate that time after carboplatin treatment. […] Heart and omentum were removed from each cohort of mice weekly post-carboplatin treatment (x-axis, 0=1 week tumor, no treatment) and the percent injected dose of radioactivity per gram of tissue determined as described above (see FIG. 2). n=3 for each cohort, C=control animals. […]
(§2) To assess VCAM-1 as a marker of chemosensitivity, two cohorts of mice were injected with an isogenic paired cell line with one being resistant and the other sensitive to platinum: The first cohort (n=9) was injected with A2780, platinum sensitive cell line and the second (n=9) with A2780Cis platinum resistant cell line. […] After each timepoint, n=3 animals from each cohort were sacrificed and VCAM-In^111 uptake quantified via biodistribution as described above.

[2] = test system: VCAM-1 expression in mesothelial cells (LP9); assay: Western analysis of VCAM-1 expression in mesothelial cells (LP9) treated with carboplatin; format: cell-based; settings: LP9 human mesothelial cells; up to 1 μg/ml carboplatin for 24 hours
[3] = cited from earlier work
[4] = test system: A2780Cis cells; assay: Tumor burden in A2780Cis-tumored mice treated with carboplatin; format: in vivo, Athymic nude mice; settings: mice with platinum-resistant A2780Cis tumors, 25 mg/kg carboplatin weekly IP
Protocol: as §1, §2

## N.N.O=C([O-])C1(C(=O)[O-])CCC1.[Pt+2] [carboplatin, cis-Diamine(1,1-cyclobutanedicarboxylato)platinum(II)]
[1]
  Tumor burden following carboplatin treatment: decreases
[2]
  Change in VCAM-1 expression (Western): no change
[3]
  Solubility in water: 25 mM
[4]
  Tumor growth / tumor burden under carboplatin: neither was altered; also recorded: continued to grow
